Test results: PubChem BioAssay (NCI)
Where “and” joins values, the source holds several entries; their conditions need not be identical. Identical values can stand only once.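 Compound exposure: 48 hours, 5 concentrations, 96-well plates. The concentration for 50% growth inhibition is given as GI50. TGI marks complete inhibition of growth.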

How the values were obtained:
Assay in all cases: NCI anticancer screen, dose series, 48 h
K-562 leukemia = test system: K-562 leukemia
LOX IMVI melanoma = test system: LOX IMVI melanoma
A498 renal = test system: A498 renal
EKVX NSCLC = test system: EKVX NSCLC
A549 NSCLC = test system: A549 NSCLC
RPMI-8226 leukemia = test system: RPMI-8226 leukemia

| SMILES | TGI (K-562 leukemia) | TGI (LOX IMVI melanoma) | TGI (A498 renal) | TGI (EKVX NSCLC) | TGI (A549 NSCLC) | TGI (RPMI-8226 leukemia) | GI50 (K-562 leukemia) | GI50 (LOX IMVI melanoma) | GI50 (A498 renal) | GI50 (EKVX NSCLC) | GI50 (A549 NSCLC) | GI50 (RPMI-8226 leukemia) |
| --- | --- | --- | --- | --- | --- | --- | --- | --- | --- | --- | --- | --- |
| O=[N+]([O-])C(C(Cl)=C(Cl)Cl)=C(N1CCCCC1)N1CCCCC1 | > 100 µM | > 100 µM | > 100 µM | > 100 µM | > 100 µM | > 100 µM | – | – | – | – | – | – |
| CC(=O)N1C(c2[nH]c3ccccc3c2Cc2ccccc2)CCN1c1ccccc1 (stereo not drawn) | > 10 µM | > 10 µM | – | > 10 µM | > 10 µM | > 10 µM | – | – | – | – | – | – |
| c1ccc2c(c1)nc1ccccn12 | > 100 µM | – | 29.5 µM | > 100 µM | > 100 µM | > 100 µM | – | – | – | – | – | – |
| O=C1CSC(c2ccccc2)N1c1ccc(-c2ccc(-n3c(-c4ccccc4)nc4ccccc4c3=O)cc2)cc1 (stereo not drawn) | > 100 µM | > 100 µM | > 100 µM | > 100 µM | > 100 µM | > 100 µM | – | – | – | – | – | – |
| CCOC(=O)/C=C(/C(=O)OCC)n1ccc(=O)n(Cc2cn(CCCCOC(C)=O)nn2)c1=O | > 100 µM | > 100 µM | – | > 100 µM | > 100 µM | > 100 µM | – | – | – | – | – | – |
| CC(C)(C)OC(=O)N(O)CCCn1cnc2c(NC3CC3)ncnc21 | > 100 µM | > 100 µM | > 100 µM | > 100 µM | > 100 µM | > 100 µM | – | – | – | – | – | – |
| CC/C(Cl)=N\OC(=O)Nc1ccc(F)c(Cl)c1 | 3.26 µM | 9.68 µM | 30.8 µM | 32.9 µM | 54.9 µM | > 100 µM | – | – | – | – | – | – |
| CN1N=C(c2ccncc2)OC1c1cccc(F)c1 (stereo not drawn) | > 100 µM | > 100 µM | > 100 µM | > 100 µM | > 100 µM | > 100 µM | – | – | – | – | – | – |
| COc1ccc(C[C@H]2COC(=O)[C@@H]2Cc2ccc(Br)cc2)cc1OC | > 72 µM | 37.8 µM | – | 56.5 µM | > 100 µM | > 100 µM | – | – | – | – | – | – |
| CC(=Nc1ccc(Cl)cc1)c1ccncc1 | > 100 µM | > 100 µM | > 100 µM | > 100 µM | > 100 µM | > 100 µM | – | – | – | – | – | – |
| Cc1cc(-c2nc3cc(F)ccc3s2)ccc1N | > 100 µM | > 100 µM | 66.8 µM | > 85.3 µM | > 100 µM | > 100 µM | – | – | – | – | – | – |
| CN(C)c1n2c3ccc([N+](=O)[O-])cc3n3c(N(C)C)[n+]4ccccc4c3c2c2cccc[n+]12 | > 100 µM | > 100 µM | > 100 µM | > 100 µM | > 100 µM | > 100 µM | – | – | – | – | – | – |
| COc1ccc(/C(C)=C2\CCCN(Cc3ccccc3)C2)cc1 | 63.4 µM | 35.3 µM | > 100 µM | > 100 µM | 86 µM | 47.4 µM | – | – | – | – | – | – |
| CC1(C)CC(=O)c2c(-c3ccc(Cl)cc3)c(C#N)c(=S)n(C3OC(CO)C(O)C(O)C3O)c2C1 (stereo not drawn) | 57.3 µM | 49.4 µM | > 100 µM | – | > 100 µM | > 100 µM | – | – | – | – | – | – |
| Cc1n[nH]c(=O)n1/N=C/c1ccco1 | > 100 µM | – | > 100 µM | > 100 µM | > 100 µM | > 100 µM | – | – | – | – | – | – |
| CCOC(=O)c1ccc(N=C2Sc3nc4ccccc4n3C2=Nc2ccc(C(=O)OCC)cc2)cc1 | – | 81.8 µM | 81.4 µM | > 100 µM | 69.8 µM | – | – | – | – | – | – | – |
| OC1C2CCCCN2C[C@@H](O)[C@H]1O (stereo partly drawn) | > 100 µM | > 100 µM | > 100 µM | > 100 µM | > 100 µM | > 100 µM | – | – | – | – | – | – |
| COc1ccc2nc3ccc(OC)cc3c(S(=O)Cc3ccccc3)c2c1 (stereo not drawn) | > 25.6 µM | 6.66 µM | 38.9 µM | 30.5 µM | 37.3 µM | 6.6 µM | – | – | – | – | – | – |
| Cc1cc(NS(=O)(=O)c2ccc(NO)cc2)no1 | 43.7 µM | 39.6 µM | > 100 µM | > 100 µM | > 100 µM | – | – | – | – | – | – | – |
| COc1cccc(CCn2c(N)c(-c3cc(Cl)cc(Cl)c3)c3ccc([N+](=O)[O-])cc3c2=O)c1 | 4.28 µM | > 56.1 µM | > 28.8 µM | > 100 µM | > 100 µM | 3.02 µM | – | – | – | – | – | – |
| COC1(OC)CCN(Cc2ccccc2)C1=O | > 37.9 µM | 16.6 µM | 44 µM | 29.7 µM | 32.3 µM | 42.8 µM | – | – | – | – | – | – |
| Cn1c2ncccc2n2c(=O)cc(O)cc12 | > 100 µM | > 100 µM | > 100 µM | > 100 µM | > 100 µM | > 100 µM | – | – | – | – | – | – |
| COC(=O)CN1Cc2cc(C)cc(c2O)CN(CC(=O)OC)Cc2cc(C)cc(c2O)CN(CC(=O)OC)Cc2cc(C)cc(c2O)CN(CC(=O)OC)Cc2cc(C)cc(c2O)C1 | 50 µM and > 100 µM | 50 µM and > 100 µM | 50 µM and > 100 µM | 50 µM and > 100 µM | 50 µM and > 100 µM | 50 µM and > 100 µM | 61.2 µM | 8.68 µM | > 100 µM | 35.3 µM | 46.4 µM | 87.6 µM |
| COc1cc(-c2nc(N)c(C#N)c3c2CCS(=O)(=O)c2ccc(C)cc2-3)cc(OC)c1OC | > 100 µM | > 100 µM | 69.8 µM | – | > 100 µM | > 100 µM | – | – | – | – | – | – |
| NC(=O)C1=C(O)[C@@]2(O)C(=O)C3=C(O)c4c(O)cccc4CC3C[C@H]2CC1=O (stereo partly drawn) | > 61.5 µM | 10.5 µM | 12.9 µM | 9.23 µM | 14.9 µM | 6.12 µM | – | – | – | – | – | – |
| N#Cc1c(C#N)c(SSc2c(C#N)c(C#N)c(N)n2-c2cccc3ccccc23)n(-c2cccc3ccccc23)c1N | > 100 µM | – | > 63.6 µM | 10.1 µM | 43.7 µM | > 100 µM | – | – | – | – | – | – |
| CC1(C)N=C(C(N)=O)c2ncn(Cc3ccccc3)c2N1 | > 100 µM | > 100 µM | > 100 µM | > 100 µM | > 100 µM | > 100 µM | – | – | – | – | – | – |
| Cc1ccc(NC(=O)c2cccc(OP(=O)(Nc3ccc(C)cc3)Nc3ccc(C)cc3)c2)cc1 | > 100 µM | > 100 µM | 62.3 µM | > 100 µM | 27.2 µM | – | – | – | – | – | – | – |
| COc1cc2c(cc1NC(=O)c1ccccc1)c1c(n2S(=O)(=O)c2ccccc2)CCN(S(=O)(=O)c2ccccc2)C1 | > 100 µM | > 100 µM | > 100 µM | – | > 100 µM | > 100 µM | – | – | – | – | – | – |
| CC1=CC2(C)C=C[C@@H]1C(=O)[C@@]1(C)CC[C@@](O)(C(C)C)[C@H]1CC2 | 52.1 µM | 39 µM | 45.6 µM | 63.1 µM | > 100 µM | 62 µM | – | – | – | – | – | – |
